Earlier results, collected in patent EP0301423B1 (CHIESI FARMACEUTICI S.p.A., priority 1987, dated 1989).

What was measured:
coronary flow = details: mice
isolated coronary artery = details: mice

CCNc1cc(C)nc2ncnn12 [TP1]
effect on coronary flow (coronary flow): increase in the coronary flow | effect on the isolated coronary artery (isolated coronary artery): relaxation of the isolated coronary artery
